Laboratory results: patent publication US20150284347A1, “NEW BENZENE SULFONAMIDE THIAZOLE COMPOUNDS” (INSERM (INSTITUT NATIONAL DE LA SANTÉ ET DE LA RECHERCHE …, priority 2012, published 2015)

Tests used:
A375 melanoma cells = assay: A375 melanoma xenograft tumor development in nude mice; format: in vivo; conditions: 0.7 mg/mouse/day over 24 days, athymic nude mice
Procedure: To assess a potential antineoplastic effect of (HA15) and (SR50) in vivo, A375 melanoma cells (2.5×10^6) were injected subcutaneously in 6-week-old female athymic nude mice and treated 5 days later by injection of vehicle (labrafil) or different compounds such as PLX4032, (HA15) and (SR50) (0.7 mg/mouse/day) over a period of 24 days. Inhibitory effect is expressed as the tumor volume (mm^3) on day 8, 11, 15, 18, 22 and 24.
Athymic BALB/C nu/nu mice (Harlan) were used. The animals were 6 weeks old and weighed between 20 and 25 g. The mice were housed in the animal's C3M in a 12 h/12 h cycle. The animals received water and food ad libitum. Mice were first acclimated for one week and then injected with A375 cells (2.5 million cells in 200 μl of PBS) subcutaneously into the right and left sides. Treatment was started eight days after injection of cancer cells (when tumors were visible). The various compounds were diluted in a mixture of Labrafil (90%) (Gattefosse), Tween 80 (1%) and N,N-Dimethylacetamide (9%). Five groups of six mice treated every day intraperitoneally with 0.7 mg/day of PLX4032, SR44 (HA15), SR47 (HA32), SR50 (JG25) or with the mixture of Labrafil in control were defined. Three times a week the tumor size was measured using a caliper. […]

[1] = system: metastatic melanoma cell line A375; assay: Trypan blue cell viability, A375; format: cell-based; conditions: 10 μM, A375, trypan blue exclusion, FIG. 1
[2] = system: melanoma cells resistant to dabrafenib; assay: Trypan blue cell viability, melanoma cells resistant to dabrafenib; format: cell-based, human; conditions: patient melanoma cells resistant to dabrafenib, FIG. 5
Procedure: The measure of cell viability was performed in the same way as for FIG. 1. Results are expressed as percentage of cells alive relatively to the number of living cells in the presence of DMSO, which is a negative control
Cells were seeded in 6-well plates (60000 cells/well), depleted and incubated with compounds for the times indicated. Then cells were detached in the presence of 2000 of HyQTase (Thermo) and 2 ml of RPMI 1640 Glutamax (Gibco) was added to the cell solution. 100 of this solution was stained for 1 minute with 100 of 0.4% trypan blue before counting with a Malassez chamber.
Melanoma cells resistant to dabrafenib wee prepared from patients treated and presented a resistance to dabrafenib. dabrafenib, [HA15], [SR47] and [SR50] were tested on these resistant cells, in order to determine their activity on cell viability of resistant melanoma cells, as illustrated in FIG. 5.

colon cells HT29 = assay: Trypan blue cell viability, HT29; format: cell-based; conditions: 10 μM, HT29, trypan blue exclusion, FIG. 1
Procedure: Cell viability was assessed by measuring the number of cells alive in samples of two different kind of prostate cells, respectively noted LNCAP and PC3, of breast cells noted MCF7, of colon cells noted HT29, of metastatic melanoma cell lines A375 and of melanoma cells from patients noted GIC. The measure of cell viability as performed by cell counting using the trypan blue exclusion method. Results were expressed as the percentage of cells alive relatively to the number of living cells in the presence of DMSO, which corresponds to the negative control associated to the 100% value. Cells were seeded in 6-well plates (60000 cells/well), depleted and incubated with compounds for the times indicated. Then cells were detached in the presence of 2000 of […] (Thermo) and 2 ml of RPMI 1640 Glutamax (Gibco) was added to the cell solution. 100 of this solution was stained for 1 minute with 100 of 0.4% trypan blue before counting with a Malassez chamber. The effect of compound on cell viability was studied on different types of cells. […] Cancer cells from prostate, breast, colon and melanoma A375 came from cell lines cultures. […] Results are expressed as percentage of cells alive relatively to the number of living cells in the presence of DMSO, which corresponds to the negative control associated to the 100% value. […]

normal human fibroblasts = assay: Trypan blue cell viability, normal fibroblasts; format: cell-based; conditions: 10 μM, FIG. 2
Procedure: Primary cell cultures of human normal melanocytes were prepared from human foreskin. In order to determine the effect of compound HA15 on cell viability of melanocytes and fibroblasts, 10 μM of ciglitazone or 10 μM of HA15 were added to the cell samples. The measure of cell viability was performed in the same way as for FIG. 1. Results are expressed as the percentage of living cells relatively to the number of living cells in the presence of DMSO, as for FIG. 1. Normal human fibroblasts prepared from foreskins of newborns were grown under 5% CO2 at 37° C. in DMEM medium supplemented with 10% FCS and penicillin/streptomycin (100 U/ml/[…]). Cells were seeded in 6-well plates (60000 cells/well), depleted and incubated with compounds for the times indicated. Then cells were detached in the presence of 2000 of […] (Thermo) and 2 ml of RPMI 1640 Glutamax (Gibco) was added to the cell solution. 100 of this solution was stained for 1 minute with 100 of 0.4% trypan blue before counting with a Malassez chamber. The effect of compound HA15 on cell viability of melanocytes and fibroblasts was studied, as illustrated by FIG. 2. Primary cell cultures of human normal melanocytes were prepared from human foreskin. In order to determine the effect of compound HA15 on cell viability of melanocytes and fibroblasts, 10 μM of ciglitazone or 10 μM of HA15 were added to the cell samples. […]

**Q.** With CC(=O)Nc1nc(-c2cccc(NS(=O)(=O)c3cccc4c(N(C)C)cccc34)c2)cs1 [HA15, N-(4-(3-(5-(dimethylamino)naphthalene-1-sulfonamido)phenyl)thiazol-2-yl)acetamide] as the molecule, how does the “ability of cells to develop visible tumors” value (A375 melanoma cells) read?
**A.** markedly attenuated

**Q.** What about the “cell viability (cells alive relative to DMSO)” value [1] of the same molecule?
**A.** viability greatly reduced

**Q.** And the “cell viability of resistant melanoma cells” value [2]?
**A.** inhibit cell viability of resistant melanoma cells

**Q.** What about the “cell viability (cells alive relative to DMSO)” value (colon cells HT29) of the same molecule?
**A.** viability greatly reduced

**Q.** And the “cell viability of normal fibroblasts” value (normal human fibroblasts)?
**A.** not affected
